In one data set the test system is hPSCs. The experiment in a line: Cell death of hPSCs on Gsk3 inhibitor treatment in albumin-free medium. Format: cell-based, human. On the procedure:
hPSCs maintained on a Synthemax-coated surface in E8 or mTeSR1 medium were dissociated into single cells with Accutase® (Life Technologies) at 37° C. for 5 min and then seeded onto a Synthemax-coated cell culture dish at 100,000-200,000 cell/cm^2 in E8 supplemented with 5 μM ROCK inhibitor Y-27632 (Selleckchem)(day −2) for 24 hours. Cells were then cultured in E8, changed daily. […] At day 0 the cell density should be between 250,000 and 400,000 cells/cm^2. At day 3, half the medium was changed to fresh RPMI medium containing 2.5 μM IWP2 (Tocris). At day 5, the entire medium was changed with RPMI medium. Cells were maintained in the cardiomyocyte maintenance medium (CMM: RPMI supplemented with 10 μg/ml insulin (sigma) and 200 μg/ml L-Ascorbic acid 2-phosphate sesquimagnesium salt hydrate (sigma)) starting from day 7, with the medium changed every 2 days.

Data set [1] has as its system brachyury expression in ES03 hESCs. The experiment in a line: Brachyury expression (mesendoderm induction) by western blot and immunostaining. Format: cell-based, human. The method, then: Cells were fixed with 4% paraformaldehyde for 15 min at room temperature and then stained with primary and secondary antibodies (Table 3) in PBS plus 0.4% Triton X-100 and 5% non-fat dry milk (Bio-Rad). Nuclei were stained with Gold Anti-fade Reagent with DAPI (Invitrogen). An epifluorescence microscope (Leica DM IRB) with a QImaging® Retiga 4000R camera was used for imaging analysis. Cells were lysed in M-PER Mammalian Protein Extraction Reagent (Pierce) in the presence of Halt Protease and Phosphatase Inhibitor Cocktail (Pierce). Proteins were separated by 10% Tris-Glycine SDS/PAGE (Invitrogen) under denaturing conditions and transferred to a nitrocellulose membrane. After blocking with 5% dried milk in TBST, the membrane was incubated with primary antibody overnight at 4° C. The membrane was then washed, incubated with an anti-mouse/rabbit peroxidase-conjugated secondary antibody (Table 3) at room temperature for 1 hour, and developed by SuperSignal chemiluminescence (Pierce).
On the technique in general: A western blot detects proteins with antibodies after separation by electrophoresis.

Take `Cc1c[nH]c(-c2cnc(NCCNc3ccc(C#N)cn3)nc2-c2ccc(Cl)cc2Cl)n1` [CH]: the cell death result was “prolific cell death” in the data set with hPSCs (12 μM at day 0, by 24 hr, absence of BSA) and “substantial cell death” with hPSCs (same concentration of CH as Burridge et al., 2 days, albumin-free medium). For the same compound, the brachyury expression result in data set [1] (6 μM CH, albumin-free RPMI, after 24 hr) is listed as “induced robust brachyury expression”; in data set [1] (30 μM CH, medium containing 1% HRA), “induced brachyury expression”; in data set [1] (CH concentrations up to 6 μM, presence of 1% human recombinant albumin (HRA)), “unable to induce brachyury expression”.

The values are drawn from patent publication US9765299B2, “Chemically defined albumin-free conditions for cardiomyocyte differentiation of human pluripotent stem cells” (Wisconsin Alumni Research Foundation, priority 2014, dated 2017).
